# From US8729061B2, “Pyrrolidine derivatives” (Hoffmann-La Roche Inc., priority 2011, dated 2014)
# Assays:
# Type in all cases: biochemical
# human Cat L = human Cat L (Homo sapiens (Human), UniProt P07711); assay: Cathepsin enzyme inhibition assay (fluorogenic peptide substrate), Cat L; settings: enzyme 1 nM, substrate Z-Val-Val-Arg-AMC 20 μM, pH 6.5
# Outline: (§1)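 Fluorogenic cleavage assay run separately on human and mouse enzymes, each at 1 nM, in 100 mM potassium phosphate pH 6.5 with 5 mM EDTA, 5 mM DTT and 0.001% Triton X-100. Reaction started with 20 μM Z-Val-Val-Arg-AMC, or Z-Leu-Arg-AMC for Cat K; AMC read at ex 360/em 465 nm. IC50 calculated by standard methods.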
# human Cat K = human Cat K (Homo sapiens (Human), UniProt P43235); assay: Cathepsin enzyme inhibition assay (fluorogenic peptide substrate), Cat K; settings: enzyme 1 nM, substrate Z-Leu-Arg-AMC 20 μM, pH 6.5
# Chain of human Cat K (P43235 115-329): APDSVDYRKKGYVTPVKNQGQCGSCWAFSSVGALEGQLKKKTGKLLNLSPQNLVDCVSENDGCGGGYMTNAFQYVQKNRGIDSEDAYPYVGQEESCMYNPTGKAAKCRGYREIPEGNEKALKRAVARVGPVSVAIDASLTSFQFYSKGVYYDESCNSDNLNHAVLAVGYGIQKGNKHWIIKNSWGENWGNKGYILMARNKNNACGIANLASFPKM
# Outline: as §1
# human Cat B = human Cat B (Homo sapiens (Human), UniProt P07858); assay: Cathepsin enzyme inhibition assay (fluorogenic peptide substrate), Cat B; settings: enzyme 1 nM, substrate Z-Val-Val-Arg-AMC 20 μM, pH 6.5
# Outline: as §1
# human Cathepsin S = human Cathepsin S (Homo sapiens (Human), UniProt P25774); assay: Cathepsin enzyme inhibition assay (fluorogenic peptide substrate), Cat S; settings: enzyme 1 nM, substrate Z-Val-Val-Arg-AMC 20 μM, pH 6.5
# Chain of human Cathepsin S (P25774 115-331): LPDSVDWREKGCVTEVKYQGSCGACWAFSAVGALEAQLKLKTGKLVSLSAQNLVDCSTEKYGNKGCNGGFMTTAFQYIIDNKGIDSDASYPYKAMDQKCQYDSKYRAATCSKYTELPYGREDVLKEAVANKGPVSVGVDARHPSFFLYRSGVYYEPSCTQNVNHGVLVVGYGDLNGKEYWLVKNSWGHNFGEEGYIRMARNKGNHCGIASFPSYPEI
# Outline: as §1
# Chain of human Cat L (P07711 114-333): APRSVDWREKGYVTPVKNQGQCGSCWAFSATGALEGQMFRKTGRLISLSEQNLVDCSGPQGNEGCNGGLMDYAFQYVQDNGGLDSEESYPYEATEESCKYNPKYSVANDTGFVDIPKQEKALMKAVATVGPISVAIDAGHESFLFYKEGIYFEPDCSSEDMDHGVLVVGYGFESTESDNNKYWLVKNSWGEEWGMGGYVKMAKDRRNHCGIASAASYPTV
IC50 (human Cat L) [nM],IC50 (human Cat K) [nM],IC50 (human Cat B) [nM],IC50 (human Cathepsin S) [nM],Structure (SMILES)
1.7,39.3,188,0.676,"CC[C@H](NC(=O)[C@@H]1C[C@@H](S(=O)(=O)c2ccccc2Cl)CN1C(=O)C1(c2ccc(Cl)cc2)CC1)C(=O)C(=O)NC1CCOCC1 [Example 53, (2S,4R)-1-(1-(4-chlorophenyl)cyclopropanecarbonyl)-4-(2-chlorophenylsulfonyl)-N—((S)-1,2-dioxo-1-(tetrahydro-2H-pyran-4-ylamino)pentan-3-yl)pyrrolidine-2-carboxamide]"
63.2,390,291,1.38,CC[C@H](NC(=O)[C@@H]1C[C@@H](S(=O)(=O)c2ccc(OCC(F)(F)F)cc2C(F)(F)F)CN1C(=O)C1(c2ccc(Cl)cc2)CC1)C(=O)C(=O)NC1CC1 [Example 11]
4.3,27.6,62.7,0.296,"CC[C@H](NC(=O)[C@@H]1C[C@@H](S(=O)(=O)c2ccccc2Cl)CN1C(=O)C1(c2ccc(Cl)cc2)CC1)C(=O)C(=O)NC1CC1 [Example 8, (2S,4R)-1-(1-(4-chlorophenyl)cyclopropanecarbonyl)-4-(2-chlorophenylsulfonyl)-N—((S)-1-(cyclopropylamino)-1,2-dioxopentan-3-yl)pyrrolidine-2-carboxamide]"
55.4,118,829,2.88,"CC[C@H](NC(=O)[C@@H]1C[C@@H](S(=O)(=O)c2ccc(OCC(F)(F)F)cc2Cl)CN1C(=O)C1(c2ncc(Cl)cc2F)CC1)C(=O)C(=O)NC1CC1 [Example 10, (2S,4R)-1-(1-(5-chloro-3-fluoropyridin-2-yl)cyclopropanecarbonyl)-4-(2-chloro-4-(2,2,2-trifluoroethoxy)phenylsulfonyl)-N—((S)-1-(cyclopropylamino)-1,2-dioxopentan-3-yl)pyrrolidine-2-carboxamide]"
2,34.4,30.2,0.901,"CC[C@H](NC(=O)[C@@H]1C[C@@H](S(=O)(=O)c2ccccc2Cl)CN1C(=O)C1(c2ccc(Cl)cc2)CC1)C(=O)C(=O)NCCc1ccccc1 [Example 49, (2S,4R)-1-(1-(4-chlorophenyl)cyclopropanecarbonyl)-4-(2-chlorophenylsulfonyl)-N—((S)-1,2-dioxo-1-(phenethylamino)pentan-3-yl)pyrrolidine-2-carboxamide]"
6,41.2,120,2.35,"CCC[C@H](NC(=O)[C@@H]1C[C@@H](S(=O)(=O)c2ccccc2Cl)CN1C(=O)C1(c2ncc(Cl)cc2F)CC1)C(=O)C(=O)NCc1ccccc1 [Example 62, (2S,4R)—N—((S)-1-(benzylamino)-1,2-dioxohexan-3-yl)-1-(1-(5-chloro-3-fluoropyridin-2-yl)cyclopropanecarbonyl)-4-(2-chlorophenylsulfonyl)pyrrolidine-2-carboxamide]"
15.1,107,246,1.02,"CCCC(C)NC(=O)C(=O)[C@H](CCC)NC(=O)[C@@H]1C[C@@H](S(=O)(=O)c2ccccc2Cl)CN1C(=O)C1(c2ccc(Cl)cc2)CC1 (stereo partly drawn) [Example 37, (2S,4R)-1-(1-(4-chlorophenyl)cyclopropanecarbonyl)-4-(2-chlorophenylsulfonyl)-N-((3S)-1,2-dioxo-1-(pentan-2-ylamino)hexan-3-yl)pyrrolidine-2-carboxamide]"
3040,11300,1850,3.78,"CC[C@H](NC(=O)[C@@H]1C[C@@H](S(=O)(=O)c2ccccc2C(F)(F)F)CN1C(=O)C1(C(F)(F)F)CC1)C(=O)C(=O)NC1CC1 [Example 7, (2S,4R)—N—((S)-1-(cyclopropylamino)-1,2-dioxopentan-3-yl)-1-(1-(trifluoromethyl)cyclopropanecarbonyl)-4-(2-(trifluoromethyl)phenylsulfonyl)pyrrolidine-2-carboxamide]"
24.9,75,93.2,3.33,"CCC[C@H](NC(=O)[C@@H]1C[C@@H](S(=O)(=O)c2ccc(N3CCOCC3)cc2Cl)CN1C(=O)C1(c2ccc(Cl)cc2)CC1)C(=O)C(=O)NC1CC1 [Example 57, (2S,4R)-4-(2-chloro-4-morpholinophenylsulfonyl)-1-(1-(4-chlorophenyl)cyclopropanecarbonyl)-N—((S)-1-(cyclopropylamino)-1,2-dioxohexan-3-yl)pyrrolidine-2-carboxamide]"
13.6,91.8,108,0.779,"CCC[C@H](NC(=O)[C@@H]1C[C@@H](S(=O)(=O)c2ccccc2Cl)CN1C(=O)C1(c2ccc(Cl)cc2)CC1)C(=O)C(=O)NCC [Example 44, (2S,4R)-1-(1-(4-chlorophenyl)cyclopropanecarbonyl)-4-(2-chlorophenylsulfonyl)-N—((S)-1-(ethylamino)-1,2-dioxohexan-3-yl)pyrrolidine-2-carboxamide]"
5.9,20.2,45.4,0.442,"CCC[C@H](NC(=O)[C@@H]1C[C@@H](S(=O)(=O)c2ccccc2Cl)CN1C(=O)C1(c2ccc(Br)cc2)CC1)C(=O)C(=O)NC1CC1 [Example 16, (2S,4R)-1-(1-(4-bromophenyl)cyclopropanecarbonyl)-4-(2-chlorophenylsulfonyl)-N—((S)-1-(cyclopropylamino)-1,2-dioxohexan-3-yl)pyrrolidine-2-carboxamide]"
10.4,37.3,150,0.668,"CC[C@H](NC(=O)[C@@H]1C[C@@H](S(=O)(=O)c2ccccc2Cl)CN1C(=O)C1(c2ccc(Br)cc2F)CC1)C(=O)C(=O)NC1CC1 [Example 14, (2S,4R)-1-(1-(4-bromo-2-fluorophenyl)cyclopropanecarbonyl)-4-(2-chlorophenylsulfonyl)-N—((S)-1-(cyclopropylamino)-1,2-dioxopentan-3-yl)pyrrolidine-2-carboxamide]"
